Results: PubChem BioAssay AID248 (DTP/NCI, 2004)
Several values for one entry are separate records, joined by “and”; a condition that tells them apart may be missing. Identical values can stand only once. Toxic doses and inconclusive results are not listed.

Tested on: L1210 leukemia ip in BDF1 mice, survival T/C
Assay: NCI In Vivo Anticancer Drug Screen. Data for tumor model L1210 Leukemia (intraperitoneal) in B6D2F1 (BDF1) mice
Details: higher = longer survival
How it was run: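 In this screen, tumor-bearing mice given compound are compared to those given vehicle, and their survival values are reported as a treated-to-control quotient.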

CC[n+]1ccc(Nc2ccc(NC(=O)c3ccc(Nc4cc[n+](CC)c5ccc(N)cc45)cc3)cc2)cc1
T/C (endpoint: mean survival time, dose: 0.12 mg/kg/injection, schedule: Q01DX005 (iv), vehicle: water): 101 % of control
T/C (endpoint: mean survival time, dose: 0.12 mg/kg/injection, schedule: Q04DX003 (iv), vehicle: water): 105 % of control
T/C (endpoint: mean survival time, dose: 0.25 mg/kg/injection, schedule: Q01DX005 (iv), vehicle: water): 105 % of control
T/C (endpoint: mean survival time, dose: 0.25 mg/kg/injection, schedule: Q03HX024 (ip), vehicle: water): 113 % of control
T/C (endpoint: mean survival time, dose: 0.25 mg/kg/injection, schedule: Q04DX003 (iv), vehicle: water): 102 % of control
T/C (endpoint: mean survival time, dose: 0.5 mg/kg/injection, schedule: Q01DX005 (iv), vehicle: water): 100 % of control and 103 % of control
T/C (endpoint: mean survival time, dose: 0.5 mg/kg/injection, schedule: Q01DX009 (sc), vehicle: water): 94 % of control
T/C (endpoint: mean survival time, dose: 0.5 mg/kg/injection, schedule: Q03HX024 (ip), vehicle: water): 157 % of control
T/C (endpoint: mean survival time, dose: 0.5 mg/kg/injection, schedule: Q03HX024 (oral), vehicle: water): 97 % of control
T/C (endpoint: mean survival time, dose: 0.5 mg/kg/injection, schedule: Q04DX003 (iv), vehicle: water): 101 % of control
T/C (endpoint: mean survival time, dose: 0.75 mg/kg/injection, schedule: Q01DX009 (ip), vehicle: saline): 152 % of control and 201 % of control
T/C (endpoint: mean survival time, dose: 1.0 mg/kg/injection, schedule: Q01DX005 (iv), vehicle: water): 115 % of control
T/C (endpoint: mean survival time, dose: 1.0 mg/kg/injection, schedule: Q01DX009 (ip), vehicle: water): 180 % of control and 211 % of control
T/C (endpoint: mean survival time, dose: 1.0 mg/kg/injection, schedule: Q01DX009 (oral), vehicle: water): 103 % of control
T/C (endpoint: mean survival time, dose: 1.0 mg/kg/injection, schedule: Q01DX009 (sc), vehicle: water): 112 % of control and 122 % of control
T/C (endpoint: mean survival time, dose: 1.0 mg/kg/injection, schedule: Q03HX016 (ip), vehicle: water): 156 % of control
T/C (endpoint: mean survival time, dose: 1.0 mg/kg/injection, schedule: Q03HX024 (ip), vehicle: water): 186 % of control and 187 % of control and 208 % of control
T/C (endpoint: mean survival time, dose: 1.0 mg/kg/injection, schedule: Q03HX024 (oral), vehicle: water): 96 % of control and 101 % of control
T/C (endpoint: mean survival time, dose: 1.0 mg/kg/injection, schedule: Q03HX024 (sc), vehicle: water): 164 % of control
T/C (endpoint: mean survival time, dose: 1.0 mg/kg/injection, schedule: Q04DX003 (iv), vehicle: water): 103 % of control
T/C (endpoint: mean survival time, dose: 1.5 mg/kg/injection, schedule: Q01DX009 (ip), vehicle: saline): 160 % of control and 171 % of control
T/C (endpoint: mean survival time, dose: 1.9 mg/kg/injection, schedule: Q01DX009 (ip), vehicle: saline): 281 % of control
T/C (endpoint: mean survival time, dose: 2.0 mg/kg/injection, schedule: Q01DX005 (iv), vehicle: water): 103 % of control
T/C (endpoint: mean survival time, dose: 2.0 mg/kg/injection, schedule: Q01DX009 (oral), vehicle: water): 103 % of control
T/C (endpoint: mean survival time, dose: 2.0 mg/kg/injection, schedule: Q01DX009 (sc), vehicle: water): 189 % of control and 206 % of control
T/C (endpoint: mean survival time, dose: 2.0 mg/kg/injection, schedule: Q03HX016 (ip), vehicle: water): 188 % of control
T/C (endpoint: mean survival time, dose: 2.0 mg/kg/injection, schedule: Q03HX024 (ip), vehicle: water): 123 % of control and 218 % of control
T/C (endpoint: mean survival time, dose: 2.0 mg/kg/injection, schedule: Q03HX024 (oral), vehicle: water): 97 % of control and 100 % of control
T/C (endpoint: mean survival time, dose: 2.0 mg/kg/injection, schedule: Q03HX024 (sc), vehicle: water): 211 % of control
T/C (endpoint: mean survival time, dose: 2.0 mg/kg/injection, schedule: Q04DX003 (ip), vehicle: water): 113 % of control and 120 % of control
T/C (endpoint: mean survival time, dose: 2.0 mg/kg/injection, schedule: Q04DX003 (iv), vehicle: water): 105 % of control
T/C (endpoint: mean survival time, dose: 3.0 mg/kg/injection, schedule: Q01DX009 (ip), vehicle: saline): 274 % of control
T/C (endpoint: mean survival time, dose: 3.2 mg/kg/injection, schedule: Q01DX009 (ip), vehicle: saline): 313 % of control
T/C (endpoint: mean survival time, dose: 4.0 mg/kg/injection, schedule: Q01DX001 (ip), vehicle: water): 111 % of control
T/C (endpoint: mean survival time, dose: 4.0 mg/kg/injection, schedule: Q01DX009 (oral), vehicle: water): 96 % of control
T/C (endpoint: mean survival time, dose: 4.0 mg/kg/injection, schedule: Q01DX009 (sc), vehicle: water): 116 % of control and 219 % of control
T/C (endpoint: mean survival time, dose: 4.0 mg/kg/injection, schedule: Q03HX016 (ip), vehicle: water): 271 % of control
T/C (endpoint: mean survival time, dose: 4.0 mg/kg/injection, schedule: Q03HX024 (ip), vehicle: water): 112 % of control
T/C (endpoint: mean survival time, dose: 4.0 mg/kg/injection, schedule: Q03HX024 (oral), vehicle: water): 100 % of control and 101 % of control
T/C (endpoint: mean survival time, dose: 4.0 mg/kg/injection, schedule: Q08DX002 (ip), vehicle: water): 107 % of control
T/C (endpoint: mean survival time, dose: 4.0 mg/kg/injection, schedule: Q08DX002 (oral), vehicle: water): 101 % of control
T/C (endpoint: mean survival time, dose: 5.0 mg/kg/injection, schedule: Q01DX009 (oral), vehicle: water): 103 % of control
T/C (endpoint: mean survival time, dose: 6.0 mg/kg/injection, schedule: Q01DX009 (ip), vehicle: saline): 271 % of control
T/C (endpoint: mean survival time, dose: 8.0 mg/kg/injection, schedule: Q01DX009 (ip), vehicle: water): 96 % of control
T/C (endpoint: mean survival time, dose: 8.0 mg/kg/injection, schedule: Q01DX009 (oral), vehicle: water): 104 % of control (2×) and 107 % of control
T/C (endpoint: mean survival time, dose: 8.0 mg/kg/injection, schedule: Q01DX009 (sc), vehicle: water): 101 % of control and 117 % of control
T/C (endpoint: mean survival time, dose: 8.0 mg/kg/injection, schedule: Q03HX024 (oral), vehicle: water): 106 % of control
T/C (endpoint: mean survival time, dose: 8.0 mg/kg/injection, schedule: Q03HX024 (sc), vehicle: water): 104 % of control
T/C (endpoint: mean survival time, dose: 8.0 mg/kg/injection, schedule: Q04DX003 (ip), vehicle: water): 160 % of control and 164 % of control and 175 % of control
T/C (endpoint: mean survival time, dose: 9.0 mg/kg/injection, schedule: Q01DX009 (ip), vehicle: saline): 109 % of control
T/C (endpoint: mean survival time, dose: 10.0 mg/kg/injection, schedule: Q01DX009 (oral), vehicle: water): 103 % of control
T/C (endpoint: mean survival time, dose: 16.0 mg/kg/injection, schedule: Q01DX009 (ip), vehicle: water): 94 % of control
T/C (endpoint: mean survival time, dose: 16.0 mg/kg/injection, schedule: Q01DX009 (oral), vehicle: water): 101 % of control
T/C (endpoint: mean survival time, dose: 16.0 mg/kg/injection, schedule: Q04DX003 (ip), vehicle: water): 177 % of control and 190 % of control and 245 % of control
T/C (endpoint: mean survival time, dose: 18.0 mg/kg/injection, schedule: Q01DX001 (ip), vehicle: saline): 157 % of control
T/C (endpoint: mean survival time, dose: 20.0 mg/kg/injection, schedule: Q01DX009 (oral), vehicle: water): 100 % of control
T/C (endpoint: mean survival time, dose: 25.0 mg/kg/injection, schedule: Q01DX001 (ip), vehicle: saline): 120 % of control
T/C (endpoint: mean survival time, dose: 32.0 mg/kg/injection, schedule: Q01DX009 (oral), vehicle: water): 103 % of control and 111 % of control
T/C (endpoint: mean survival time, dose: 32.0 mg/kg/injection, schedule: Q03HX008 (ip), vehicle: water): 190 % of control
T/C (endpoint: mean survival time, dose: 40.0 mg/kg/injection, schedule: Q01DX009 (oral), vehicle: water): 105 % of control
T/C (endpoint: mean survival time, dose: 64.0 mg/kg/injection, schedule: Q01DX009 (oral), vehicle: water): 100 % of control and 102 % of control
T/C (endpoint: mean survival time, dose: 80.0 mg/kg/injection, schedule: Q01DX009 (oral), vehicle: water): 110 % of control
T/C (endpoint: median survival time, dose: 0.5 mg/kg/injection, schedule: Q03HX024 (ip), vehicle: water): 120 % of control and 122 % of control
T/C (endpoint: median survival time, dose: 1.3 mg/kg/injection, schedule: Q03HX024 (ip), vehicle: water): 190 % of control and 191 % of control
T/C (endpoint: median survival time, dose: 2.2 mg/kg/injection, schedule: Q01DX009 (ip), vehicle: water): 195 % of control and 198 % of control
T/C (endpoint: median survival time, dose: 2.2 mg/kg/injection, schedule: Q03HX024 (ip), vehicle: water): 235 % of control and 247 % of control
T/C (endpoint: median survival time, dose: 3.6 mg/kg/injection, schedule: Q01DX009 (ip), vehicle: water): 225 % of control and 227 % of control
T/C (endpoint: median survival time, dose: 6.0 mg/kg/injection, schedule: Q01DX009 (ip), vehicle: water): 170 % of control and 172 % of control
T/C (endpoint: median survival time, dose: 10.0 mg/kg/injection, schedule: Q01DX009 (ip), vehicle: water): 120 % of control and 122 % of control

Nc1nc(-c2cccnc2)nc2c1cnn2-c1ccccc1
T/C (endpoint: mean survival time, dose: 100.0 mg/kg/injection, schedule: Q01DX001 (ip), vehicle: other): 100 % of control
T/C (endpoint: mean survival time, dose: 100.0 mg/kg/injection, schedule: Q04DX003 (ip), vehicle: other): 97 % of control
T/C (endpoint: mean survival time, dose: 200.0 mg/kg/injection, schedule: Q01DX001 (ip), vehicle: other): 95 % of control
T/C (endpoint: mean survival time, dose: 200.0 mg/kg/injection, schedule: Q04DX003 (ip), vehicle: other): 104 % of control
T/C (endpoint: mean survival time, dose: 400.0 mg/kg/injection, schedule: Q01DX001 (ip), vehicle: other): 94 % of control
T/C (endpoint: mean survival time, dose: 400.0 mg/kg/injection, schedule: Q04DX003 (ip), vehicle: other): 109 % of control

O=C(Nc1ccc(C2=NCCN2)cc1)c1ccc(C(=O)Nc2ccc(C3=NCCN3)cc2)c2ccccc12
T/C (endpoint: mean survival time, dose: 3.75 mg/kg/injection, schedule: Q01DX Z (ip), vehicle: methylcellulose (MC)): 102 % of control
T/C (endpoint: mean survival time, dose: 7.5 mg/kg/injection, schedule: Q01DX Z (ip), vehicle: methylcellulose (MC)): 118 % of control
T/C (endpoint: mean survival time, dose: 15.0 mg/kg/injection, schedule: Q01DX Z (ip), vehicle: methylcellulose (MC)): 169 % of control
T/C (endpoint: mean survival time, dose: 30.0 mg/kg/injection, schedule: Q01DX Z (ip), vehicle: methylcellulose (MC)): 166 % of control and 170 % of control
T/C (endpoint: mean survival time, dose: 30.0 mg/kg/injection, schedule: Q01DX Z (oral), vehicle: carboxymethylcellulose (CMC)): 102 % of control
T/C (endpoint: mean survival time, dose: 120.0 mg/kg/injection, schedule: Q01DX Z (oral), vehicle: carboxymethylcellulose (CMC)): 94 % of control
